How the values were obtained:
[1] = molecular target: T1, Transient receptor potential cation channel subfamily V member 1 (Rattus norvegicus, UniProt O35433); assay: Induction of [Ca2+] uptake in CHO cells expressing rat TRPV1 at 10-30 uM relative to 300 nM capsaicin; Not effective; type: functional, cell-based
[2] = molecular target: T1, Transient receptor potential cation channel subfamily V member 1; assay: Antagonist activity towards rat TRPV1 expressed in CHO cells; type: functional, cell-based
[3] = molecular target: T1, Transient receptor potential cation channel subfamily V member 1; assay: In vitro inhibition of [3H]RTX binding to rat TRPV1 expressed in CHO cells; type: cell-based
[4] = molecular target: T1, Transient receptor potential cation channel subfamily V member 1; assay: Antagonist activity towards rat TRPV1 expressed in CHO cells; Not effective; type: functional, cell-based
[5] = molecular target: T1, Transient receptor potential cation channel subfamily V member 1; assay: Induction of [Ca2+] uptake in CHO cells expressing rat TRPV1 at 10-30 uM relative to 300 nM capsaicin; Weakly effective; type: functional, cell-based
[6] = molecular target: T1, Transient receptor potential cation channel subfamily V member 1; assay: Induction of [Ca2+] uptake in CHO cells expressing rat TRPV1 relative to 300 nM capsaicin; type: functional, cell-based

T1 sequence (O35433 whole entry): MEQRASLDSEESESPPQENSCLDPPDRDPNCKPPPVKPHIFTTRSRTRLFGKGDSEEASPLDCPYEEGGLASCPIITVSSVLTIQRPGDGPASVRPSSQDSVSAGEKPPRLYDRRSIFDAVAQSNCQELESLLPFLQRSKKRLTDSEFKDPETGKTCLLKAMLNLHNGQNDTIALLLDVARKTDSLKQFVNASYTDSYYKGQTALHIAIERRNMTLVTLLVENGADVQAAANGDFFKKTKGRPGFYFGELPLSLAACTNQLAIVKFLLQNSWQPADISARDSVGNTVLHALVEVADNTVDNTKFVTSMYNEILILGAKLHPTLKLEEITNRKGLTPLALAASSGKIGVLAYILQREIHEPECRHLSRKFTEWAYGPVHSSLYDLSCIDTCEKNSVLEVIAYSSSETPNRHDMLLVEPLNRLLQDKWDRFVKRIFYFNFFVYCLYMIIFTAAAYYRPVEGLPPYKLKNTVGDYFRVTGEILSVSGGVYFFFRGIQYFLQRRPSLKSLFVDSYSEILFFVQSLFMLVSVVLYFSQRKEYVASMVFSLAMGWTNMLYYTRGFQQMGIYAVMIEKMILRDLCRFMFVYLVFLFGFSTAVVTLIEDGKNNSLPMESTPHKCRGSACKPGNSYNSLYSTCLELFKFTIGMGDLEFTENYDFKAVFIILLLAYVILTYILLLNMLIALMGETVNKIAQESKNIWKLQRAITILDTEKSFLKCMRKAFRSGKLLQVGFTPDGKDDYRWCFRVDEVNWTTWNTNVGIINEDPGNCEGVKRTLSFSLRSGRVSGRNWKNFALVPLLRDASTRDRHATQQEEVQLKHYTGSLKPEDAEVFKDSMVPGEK

EC50 [1] | Ki [2] [nM] | Ki [3] [nM] | Structure (SMILES) | also measured
Not Active | 398 | 2100 | CC(C)(C)c1ccc(CNC(=O)Cc2ccc(NS(C)(=O)=O)cc2)cc1 | –
Not Active | 470 | – | CC(C)(C)c1ccc(C/N=C(\S)N(O)Cc2ccc(NS(C)(=O)=O)cc2)cc1 | –
Not Active | 1460 | – | CC(C)(C)c1ccc(C/N=C(\S)NNc2ccc(NS(C)(=O)=O)cc2)cc1 | –
– | 6760 | 5220 | CC(C)(C)c1ccc(CC(=O)NCc2ccc(NS(C)(=O)=O)cc2)cc1 | efficacy [5]: 20%
Not Active | 110 | 461 | COc1cc(CO/C(S)=N/Cc2ccc(C(C)(C)C)cc2)ccc1NS(C)(=O)=O | –
– | 120 | 450 | CC(C)(C)c1ccc(C/N=C(\S)OCc2ccc(NS(C)(=O)=O)c(F)c2)cc1 | efficacy [5]: 7%
Not Active | 225 | 2560 | CC(C)(C)c1ccc(CNC(=O)NCc2ccc(NS(C)(=O)=O)cc2)cc1 | –
Not Active | 8400 | – | COc1cc(C/N=C(\S)OCc2ccc(C(C)(C)C)cc2)ccc1NS(C)(=O)=O | –
– | 6250 | 4600 | CC(C)(C)c1ccc(CO/C(S)=N/Cc2ccc(NS(C)(=O)=O)cc2)cc1 | efficacy [5]: 13%
Not Active | 222 | 772 | CC(C)(C)c1ccc(C/N=C(\S)OCc2ccc(NS(C)(=O)=O)cc2)cc1 | –
Not Active | – | – | CC(C)(C)c1ccc(CNC(=S)NCc2ccc(NS(C)(=O)=O)cc2)cc1 | –
– | 6600 | – | CC(C)(C)c1ccc(CN(O)C(=O)Cc2ccc(NS(C)(=O)=O)cc2)cc1 | efficacy [5]: 30%
Not Active | 2010 | 6400 | CC(C)(C)c1ccc(N/N=C(\S)NCc2ccc(NS(C)(=O)=O)cc2)cc1 | –
– | 470 | – | CC(C)(C)c1ccc(CN(O)/C(S)=N/Cc2ccc(NS(C)(=O)=O)cc2)cc1 | efficacy [5]: 16%

The remaining lines, values behind:

Structure (SMILES) | EC50 [1] | Ki [2] [nM] | Ki [3] [nM] | also measured
CC(C)(C)c1ccc(CC(=O)N(O)Cc2ccc(NS(C)(=O)=O)cc2)cc1 | – | – | – | Ki [4]: Not Active
CC(C)(C)c1ccc(CNC(=O)N(O)Cc2ccc(NS(C)(=O)=O)cc2)cc1 | – | – | – | Ki [4]: Not Active
CCCCCCCC/C=C\CCCCCCCCNC(=O)Cc1ccc(NS(C)(=O)=O)cc1 | Not Active | – | > 25000 | Ki [4]: Not Active
CC(C)(C)c1ccc(CN(O)/C(S)=N/Cc2ccc(NS(C)(=O)=O)c(F)c2)cc1 | – | – | – | EC50 [6]: > 7060 nM; Ki [4]: Not Active
Cc1ccc(CCCNC(=O)Cc2ccc(NS(C)(=O)=O)c(F)c2)cc1C | Not Active | 4660 | – | –
CC(C)(C)c1ccc(CN(O)/C(S)=N/Cc2ccc(NS(C)(=O)=O)c([N+](=O)[O-])c2)cc1 | Not Active | 635 | – | –
Cc1ccc(CCCNC(=O)Cc2ccc(NS(C)(=O)=O)cc2)cc1C | Not Active | 13600 | 7180 | –
COc1cc(C/N=C(\S)N(O)Cc2ccc(C(C)(C)C)cc2)ccc1NS(C)(=O)=O | – | – | – | Ki [4]: Not Active
COc1cc(CNC(=S)NCc2ccc(C(C)(C)C)cc2)ccc1NS(C)(=O)=O | – | 3.4 | 50.4 | EC50 [5]: Partial agonist
CC(C)(C)c1ccc(CN(O)/C(S)=N/Cc2ccc(NS(C)(=O)=O)cc2Cl)cc1 | Not Active | – | 2270 | Ki [4]: Not Active
CC(C)(C)c1ccc(CNC(=O)Cc2ccc(NS(C)(=O)=O)c(F)c2)cc1 | Not Active | 118 | 472 | –
CC(C)(C)c1ccc(CNC(=S)NCc2ccc(NS(C)(=O)=O)c(F)c2)cc1 | Not Active | – | 53.5 | –
CC(C)(C)c1ccc(CN(O)/C(S)=N/Cc2ccc(NS(C)(=O)=O)c(Cl)c2)cc1 | Not Active | 579 | 1310 | –
Oc1cc2c(cc1O)CN(C(=S)NCCc1ccc(Cl)cc1)CCC2 [CAPSAZEPINE] | Not Active | – | – | –

Source: ChEMBL document CHEMBL1142823, “Analysis of structure-activity relationships for the 'B-region' of N-(4-t-butylbenzyl)-N'-[4-(methylsulfonylamino)benzyl]-thiourea analogues as TRPV1 antagonists” (Bioorg Med Chem Lett, 2005)
